The values that follow come from US7728019B2, “Biphenylcarboxamides” (priority 2002, dated 2010).

Each structure is given as a SMILES string.

One data set has as its system Botrytis cinerea. The experiment in a line: Botrytis test (bean)/protective. The class given is in vivo. The conditions noted are these: 48 h, bean plants, protective, application rate 500 g/ha, evaluation 2 days after inoculation, read-out: Efficacy in %. On the procedure: (§1) To produce a suitable preparation of active compound, 1 part by weight of active compound is mixed with the stated amounts of solvents and emulsifier, and the concentrate is diluted with water to the desired concentration.
To test for protective activity, young plants are sprayed with the preparation of active compound at the stated application rate. After the spray coating has dried on, 2 small pieces of agar colonized by Botrytis cinerea are placed onto each leaf. The inoculated plants are placed in a dark chamber at about 20° C. and 100% relative atmospheric humidity.
2 days after the inoculation, the size of the infected areas on the leaves is evaluated. 0% means an efficacy which corresponds to that of the control, whereas an efficacy of 100% means that no infection is observed.

Data set [1] can be described thus: logP determination by HPLC on reverse-phase column (C 18), acidic range pH 2.3. The class given is physicochemical. To be noted: reverse-phase HPLC column (C 18), HPLC, C 18 reverse-phase, 43° C. How it is done:
The logP values given in Table 1 were determined with EEC Directive 79/831 Annex V.A8 by HPLC (High Performance Liquid Chromatography) on a reverse-phase column (C 18). Temperature: 43° C. Mobile phases for the determination in the acidic range (pH 2.3): 0.1% aqueous phosphoric acid, acetonitrile; linear gradient from 10% acetonitrile to 90% acetonitrile. Calibration was carried out using unbranched alkan-2-ones (having 3 to 16 carbon atoms) with known logP values (determination of the logP values by the retention times using linear interpolation between two successive alkanones).

A further data set deals with Alternaria solani. The experiment in a line: Alternaria test (tomato)/protective. The format is in vivo. The conditions noted are these: tomato plants, protective; application rate 750 g/ha; evaluation 7 days after inoculation. How it is done:
(§2) To produce a suitable preparation of active compound, 1 part by weight of active compound is mixed with the stated amounts of solvent and emulsifier, and the concentrate is diluted with water to the desired concentration.
To test for protective activity, young tomato plants are sprayed with the preparation of active compound at the stated application rate. 1 day after the treatment, the plants are inoculated with a spore suspension of Alternaria solani and then remain at 100% relative atmospheric humidity and 20° C. for 24 hours. The plants then remain at 96% relative atmospheric humidity and a temperature of 20° C.
Evaluation is carried out 7 days after the inoculation. 0% means an efficacy which corresponds to that of the control, whereas an efficacy of 100% means that no infection is observed.

For data set [2], the system named is apple scab pathogen Venturia inaequalis. The experiment in a line: Venturia test (apple)/protective. The class given is in vivo. The conditions noted are these: apple plants, protective; application rate 100 g/ha; evaluation 10 days after inoculation. On the procedure: as §1
To test for protective activity, young plants are sprayed with the preparation of active compound at the stated application rate. After the spray coating has dried on, the plants are inoculated with an aqueous conidia suspension of the apple scab pathogen Venturia inaequalis and then remain in an incubation cabin at about 20° C. and 100% relative atmospheric humidity for 1 day.
The plants are then placed in a greenhouse at about 21° C. and a relative atmospheric humidity of about 90%.
(§3) Evaluation is carried out 10 days after the inoculation. 0% means an efficacy which corresponds to that of the control, whereas an efficacy of 100% means that no infection is observed.

A further data set has as its system Puccinia recondita. In words: Puccinia test (wheat)/protective. The class given is in vivo. The conditions noted are these: 240 h, wheat plants, protective, application rate 500 g/ha, evaluation 10 days after inoculation, read-out: Efficacy in %. How it is done: as §2
To test for protective activity, young plants are inoculated with a spore suspension of Puccinia recondita in a 0.1% strength aqueous agar solution. After the spray coating has dried on, the plants are sprayed with the preparation of active compound at the stated application rate. The plants remain in an incubation cabin at 20° C. and 100% relative atmospheric humidity for 24 hours.
The plants are then placed in a greenhouse at a temperature of about 20° C. and a relative atmospheric humidity of 80% to promote the development of rust pustules.
as §3

In data set [3] the test system is eggs of the diamond back moth (Plutella xylostella). In words: Plutella test. The format is in vivo. To be noted: active compound concentration 1000 ppm, on synthetic feed. On the procedure: To produce a suitable preparation of active compound, 1 part by weight of active compound is mixed with the stated amount of solvent, and the concentrate is diluted with methanol to the desired concentrations.
A stated amount of the preparation of active compound of the desired concentration is pipetted onto a standardized amount of synthetic feed. After the methanol has evaporated, about 200-300 eggs of the diamond back moth (Plutella xylostella) are placed onto the feed.
After the desired period of time, the kill of the eggs in % is determined. 100% means that all animals have been killed; 0% means that none of the animals have been killed.

For the molecule `Cc1nc(C(F)(F)F)c(C(=O)Nc2ccccc2-c2ccc(/C=N\OCC3CC3)cc2)s1` [Compound 2], the pest or weed control at 500 g/ha with Botrytis cinerea was 98%. The molecule further showed a chromatographic logP in data set [1] of 4.16. The molecule also showed an Efficacy in % in the data set on Alternaria solani of 90%.
With `C=CCO/N=C\c1ccc(-c2ccccc2NC(=O)c2sc(C)nc2C(F)(F)F)cc1` [Compound 5], in the data set with Botrytis cinerea, the pest or weed control at 500 g/ha stood at 83%. Also, the Efficacy in % (in data set [2]; in the data set on Alternaria solani) was 100% each time. The same molecule gave a chromatographic logP in data set [1] of 3.91.
With `C=CCO/N=C\c1ccc(-c2ccccc2NC(=O)c2c(C)nn(C)c2F)cc1` [Compound 6], the pest or weed control at 500 g/ha in the data set on Botrytis cinerea was 98%; in the data set on Puccinia recondita it was 100%. Moreover, the values for the Efficacy in % (in data set [2]; with Alternaria solani) were 97% and 100%, respectively. The molecule further came in with a chromatographic logP in data set [1] of 3.47.
For the molecule `C=CCO/N=C\c1ccc(-c2ccccc2NC(=O)c2cn(C)nc2C(F)F)cc1` [Compound 10], the pest or weed control at 500 g/ha in the data set on Botrytis cinerea was determined as 95%; with Puccinia recondita it was 100%. Besides, the Efficacy in % in data set [2] was 100%. The chromatographic logP in data set [1] stood at 3.32.
Regarding `C=CCO/N=C\c1ccc(-c2ccccc2NC(=O)c2cn(C)nc2C(F)(F)F)cc1` [Compound 11], the chromatographic logP in data set [1] amounted to 3.53. Also, the Efficacy in % with Alternaria solani was found to be 100%.
Molecule `C=CCO/N=C\c1ccc(-c2ccccc2NC(=O)c2cccnc2Cl)cc1` [Compound 12] came in with a chromatographic logP in data set [1] of 3.3. In the data set with Alternaria solani, this molecule gave an Efficacy in % of 100%.
Regarding `C=CCO/N=C(/C)c1ccc(-c2ccccc2NC(=O)c2sc(C)nc2C(F)F)cc1` [Compound 15], in data set [3], the “Kill rate in % after 7 d” value is on record as 95%. In data set [1], this molecule returned a chromatographic logP of 3.92. Also, the pest or weed control at 500 g/ha in the data set on Puccinia recondita was found to be 100%.
As for `CC1=C(C(=O)Nc2ccccc2-c2ccc(/C(C)=N\OCC3CC3)cc2)SCCO1` [Compound 22], the “Kill rate in % after 7 d” value in data set [3] amounted to 95%. Further, in data set [1], the chromatographic logP is 4.69.

As a reminder, the chromatographic logP is a lipophilicity value derived from retention on a column. A lower chromatographic logP goes with a more hydrophilic compound.
